From patent US20250345392A1, “ANNEXIN A1 LIQUID PHARMACEUTICAL COMPOSITION” (ResoTher Pharma A/S, priority 2022, published 2025)
Ends that are not written are not given here.

How the values were obtained:
[1] = 14-day repeat dose IV toxicity study with toxicokinetic evaluation on Day 1 and Day 14 in rats; type: in vivo, Wistar rats; details: rat, in vivo, iv, 10 mg/kg/day, IV 10 mg/kg/day
Procedure: (§1) Peptide 1 in blood samples collected from animals used in the studies (rat and dog) has been measured by an LC-MS/MS method. Analysis of samples collected in the pharmacokinetic study in rats was performed prior to validation of the method. Prior to analysis of samples from the GLP toxicology studies, the method was validated according to GLP to ensure that it is selective, accurate, reproducible, and able to produce reliable results. The method was validated over the range from 0.075 to 25 μg/mL Peptide 1.
In the 14-day intravenous toxicity study in Wistar rats (see study description below), samples were collected from 3 male and 3 female animals per group dosed at 0 (Control), 1, 3 or 10 mg/kg/day at 2, 5, 10, 20 and 40 minutes after dosing on Days 1 and 14. Samples were analysed for levels of Peptide 1.

[2] = PK after single intravenous injection of Peptide 1 in male rats; design: species or system male Wistar (CRL: WI(Han)) rats; details: rat, in vivo; for clearance / half-life / Vd: iv
Procedure: as §1
The objective of the study was to assess the pharmacokinetic profile of Peptide 1 when administered once by intravenous injection to male Wistar (CRL: WI(Han)) rats at 0.1, 1.0 and 10.0 mg/kg. The number of rats per group was respectively 6, 6 and 8. Blood samples were collected from 3 animals per group at 2, 5, 10, 20, 40 and 60 minutes after dosing; for the animals receiving 10.0 mg/kg, additional samples were taken from 2 animals at 90 and 120 minutes after dosing. The pharmacokinetics were characterised using mean plasma concentration vs. time data. The pharmacokinetic parameters were estimated using Phoenix WinNonlin Version 6.3 pharmacokinetic software.
[…] 26 plasma samples (samples in Group 1 (0.1 mg/kg) obtained 2 minutes post dosing, in Group 2 (1 mg/kg) 2 to 10 minutes post dosing and in Group 3 (10 mg/kg) 2 to 40 minutes post dosing) had concentrations of Peptide 1 above the upper limit of quantification for the bioanalytical method. As a consequence, plasma concentration of Peptide 1 was extrapolated. Plasma samples obtained 60 minutes post dosing in Group 1 had plasma concentration of Peptide 1 below the limit of quantification.

[3] = single IV 0.1 mg/kg, initial elimination phase
[4] = single IV 1.0 mg/kg, initial elimination phase
[5] = single IV 10 mg/kg, initial elimination phase

Substance: AMVSEFLKQAWFIENEEQEYVQTLKSSKGGPGSAVSPYPTFNPSSDV-NH2 [Peptide 1]
- AUC(0-inf) ([1]; female, Day 1, read-out: AUC0-∞ (converted)): 9570 ng·h/mL
- half-life ([1]; female, Day 1, read-out: T1/2): 7.16 min
- Vd ([1]; female, Day 1, read-out: Vz): 0.18 L/kg
- C0 ([1]; female, Day 14): 138 µg/mL
- clearance ([1]; female, Day 14): 16.5 mL/min/kg
- AUC(0-inf) ([1]; female, Day 14, read-out: AUC0-∞ (converted)): 10100 ng·h/mL
- half-life ([1]; female, Day 14, read-out: T1/2): 7.04 min
- Vd ([1]; female, Day 14, read-out: Vz): 0.168 L/kg
- C0 ([1]; male, Day 1): 104 µg/mL
- clearance ([1]; male, Day 1): 18.1 mL/min/kg
- AUC(0-inf) ([1]; male, Day 1, read-out: AUC0-∞ (converted)): 9200 ng·h/mL
- half-life ([1]; male, Day 1, read-out: T1/2): 7.8 min
- Vd ([1]; male, Day 1, read-out: Vz): 0.204 L/kg
- C0 ([1]; male, Day 14): 92.3 µg/mL
- clearance ([1]; male, Day 14): 18.2 mL/min/kg
- AUC(0-inf) ([1]; male, Day 14, read-out: AUC0-∞ (converted)): 9130 ng·h/mL
- half-life ([1]; male, Day 14, read-out: T1/2): 7.31 min
- Vd ([1]; male, Day 14, read-out: Vz): 0.192 L/kg
- clearance ([2]; 0.1 mg/kg, single IV 0.1 mg/kg, initial elimination phase, read-out: CL): 10 mL/min/kg
- half-life ([2]; 0.1 mg/kg, single IV 0.1 mg/kg, initial elimination phase, read-out: T½): 3.49 min
- Vd ([2]; 0.1 mg/kg, single IV 0.1 mg/kg, initial elimination phase, read-out: Vz): 0.0505 L/kg
- clearance ([2]; 0.1 mg/kg, single IV 0.1 mg/kg, terminal elimination phase, read-out: CL): 9.66 mL/min/kg
- half-life ([2]; 0.1 mg/kg, single IV 0.1 mg/kg, terminal elimination phase, read-out: T½): 18.8 min
- Vd ([2]; 0.1 mg/kg, single IV 0.1 mg/kg, terminal elimination phase, read-out: Vz): 0.261 L/kg
- clearance ([2]; 1 mg/kg, single IV 1.0 mg/kg, initial elimination phase, read-out: CL): 8.08 mL/min/kg
- half-life ([2]; 1 mg/kg, single IV 1.0 mg/kg, initial elimination phase, read-out: T½): 3.34 min
- Vd ([2]; 1 mg/kg, single IV 1.0 mg/kg, initial elimination phase, read-out: Vz): 0.0389 L/kg
- clearance ([2]; 1 mg/kg, single IV 1.0 mg/kg, terminal elimination phase, read-out: CL): 8.05 mL/min/kg
- half-life ([2]; 1 mg/kg, single IV 1.0 mg/kg, terminal elimination phase, read-out: T½): 10 min
- Vd ([2]; 1 mg/kg, single IV 1.0 mg/kg, terminal elimination phase, read-out: Vz): 0.116 L/kg
- clearance ([2]; 10 mg/kg, single IV 10 mg/kg, initial elimination phase, read-out: CL): 11.1 mL/min/kg
- half-life ([2]; 10 mg/kg, single IV 10 mg/kg, initial elimination phase, read-out: T½): 7.64 min
- Vd ([2]; 10 mg/kg, single IV 10 mg/kg, initial elimination phase, read-out: Vz): 0.122 L/kg
- clearance ([2]; 10 mg/kg, single IV 10 mg/kg, terminal elimination phase, read-out: CL): 11.1 mL/min/kg
- half-life ([2]; 10 mg/kg, single IV 10 mg/kg, terminal elimination phase, read-out: T½): 10.2 min
- Vd ([2]; 10 mg/kg, single IV 10 mg/kg, terminal elimination phase, read-out: Vz): 0.162 L/kg
- clearance ([2]; single IV, both phases, range over 0.1-10 mg/kg, read-out: clearance): 8 to 11 mL/min/kg
- half-life ([2]; single IV, initial phase, range over 0.1-10 mg/kg, read-out: half-life): 3 to 8 min
- Vd ([2]; single IV, initial phase, range over 0.1-10 mg/kg, read-out: volume of distribution): 0.039 to 0.122 L/kg
- half-life ([2]; single IV, terminal elimination phase, range over 0.1-10 mg/kg, read-out: half-life): 10 to 19 min
- Vd ([2]; single IV, terminal phase, range over 0.1-10 mg/kg, read-out: volume of distribution): 0.116 to 0.261 L/kg
- AUC(0-t) [2, 3]: 165 ng·h/mL
- C0 [2, 3]: 1.79 µg/mL
- AUC(0-inf) ([2]; single IV 0.1 mg/kg, terminal elimination phase): 173 ng·h/mL
- AUC(0-t) [2, 4]: 2070 ng·h/mL
- C0 [2, 4]: 32.5 µg/mL
- AUC(0-inf) ([2]; single IV 1.0 mg/kg, terminal elimination phase): 2070 ng·h/mL
- AUC(0-t) [2, 5]: 14800 ng·h/mL
- C0 [2, 5]: 68.9 µg/mL
- AUC(0-inf) ([2]; single IV 10 mg/kg, terminal elimination phase): 15000 ng·h/mL
